Results on 13 compounds are retold here after PubChem BioAssay (NCI).

Among the test systems are A549 NSCLC; HL-60(TB) leukemia; HOP-62 NSCLC; MOLT-4 leukemia; NCI-H460 lung; OVCAR-5 ovarian; PC-3 prostate; SF-268 CNS; SR leukemia; A498 renal.
Experiment in all cases: NCI tumour cell line growth inhibition, 48 h

Molecules are shown by their SMILES.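 Test compounds were applied to cells in 96-well plates for 48 hours at 5 doses. GI50 = concentration required for 50% inhibition of growth. TGI: total growth inhibition.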

Regarding `CN1C(=O)C2(c3ccccc31)C1CC3C(CO1)C1C2C3(CO)CN1C#N` (stereo not given), the TGI with A549 NSCLC, with HL-60(TB) leukemia, with HOP-62 NSCLC, with MOLT-4 leukemia, in the experiment with NCI-H460 lung and with OVCAR-5 ovarian was over 100 µM throughout. In addition, the TGI in the experiment with PC-3 prostate, with SF-268 CNS and in the experiment with SR leukemia was over 100 µM throughout.

As to `CN(C)CCNC(=O)c1ccc2oc3cc4ccccc4c(=O)n3c2c1`, the GI50 with A549 NSCLC was 26.2 µM; with HL-60(TB) leukemia, 30.4 µM; in the experiment on HOP-62 NSCLC, over 100000 nM; with MOLT-4 leukemia, 64200 nM; in the experiment on NCI-H460 lung, 42200 nM; in the experiment with PC-3 prostate it was 61.6 µM. Moreover, the GI50 with SF-268 CNS was 32.6 µM; in the experiment on SR leukemia, 32900 nM. Besides, the TGI is 97 µM in the experiment with A549 NSCLC; over 100 µM in the experiment on HL-60(TB) leukemia; over 100 µM in the experiment on HOP-62 NSCLC; over 100 µM with MOLT-4 leukemia; over 100 µM in the experiment with NCI-H460 lung; over 100 µM in the experiment on PC-3 prostate. The TGI with SF-268 CNS was 93.2 µM; in the experiment on SR leukemia, over 100 µM.

As for `O=C1CC(N2C(=O)/C(=C/C(Cl)=C\c3ccc([N+](=O)[O-])cc3)SC2=S)C(=O)N1c1ccc(O)cc1` (stereo not given), the GI50 in the experiment with A549 NSCLC is 3.11 µM; in the experiment with HL-60(TB) leukemia it was 2.44 µM; in the experiment with HOP-62 NSCLC, 2260 nM; in the experiment on MOLT-4 leukemia, 544 nM; in the experiment with NCI-H460 lung it was 2550 nM; in the experiment with OVCAR-5 ovarian, 1.91 µM. Further, the results for the GI50 in the experiment on PC-3 prostate, with SF-268 CNS and with SR leukemia were 0.906 µM, 2.43 µM and 394 nM, respectively. For the same compound, the TGI in the experiment on A549 NSCLC was 11.3 µM; with HL-60(TB) leukemia it was 9.57 µM; in the experiment on HOP-62 NSCLC, 6.63 µM; with MOLT-4 leukemia, 15.3 µM; in the experiment on NCI-H460 lung it was 6.75 µM; in the experiment on OVCAR-5 ovarian, 3.69 µM. In addition, the values for the TGI with PC-3 prostate, in the experiment on SF-268 CNS and in the experiment with SR leukemia were 2.87 µM, 6.99 µM and 4.97 µM, respectively.

`CN(C)c1ccccc1[CH2][Ga]([Cl])[CH2]c1ccccc1N(C)C`: the GI50 in the experiment with A549 NSCLC was 1.44 µM; in the experiment on HL-60(TB) leukemia, 2.7 µM; in the experiment on HOP-62 NSCLC it was 1210 nM; in the experiment on MOLT-4 leukemia it was 927 nM; in the experiment on NCI-H460 lung, 1760 nM; with OVCAR-5 ovarian, 1.35 µM. Also, the GI50 was 1.74 µM in the experiment with PC-3 prostate, 1.77 µM in the experiment with SF-268 CNS and 1230 nM in the experiment with SR leukemia. The TGI came to 2.94 µM in the experiment with A549 NSCLC; 5.36 µM in the experiment with HL-60(TB) leukemia; 2.57 µM with HOP-62 NSCLC; 5.37 µM with MOLT-4 leukemia; 3.58 µM in the experiment on NCI-H460 lung; 2.73 µM with OVCAR-5 ovarian. The TGI in the experiment with PC-3 prostate came out at 3.63 µM; in the experiment on SF-268 CNS it was 3.3 µM; with SR leukemia it was 4.69 µM.

`O=C(O)Cc1ccc(N=Nc2c(O)c(C(=O)O)cc3ccccc23)cc1`: the TGI in the experiment on A549 NSCLC, in the experiment on HL-60(TB) leukemia, in the experiment on HOP-62 NSCLC, in the experiment on MOLT-4 leukemia, in the experiment with NCI-H460 lung and with OVCAR-5 ovarian was over 100 µM each time. Moreover, the TGI in the experiment on PC-3 prostate, in the experiment with SF-268 CNS and in the experiment on SR leukemia was over 100 µM each time.

`CC(C)C(=O)c1c(C(F)(F)F)n([O-])c2ccccc2[n+]1=O`: the GI50 was 7.34 µM with A498 renal; 2.46 µM in the experiment with A549 NSCLC; 1780 nM with HOP-62 NSCLC; 1270 nM in the experiment on MOLT-4 leukemia; 1720 nM in the experiment on NCI-H460 lung; 2.7 µM with OVCAR-5 ovarian. The GI50 is 0.688 µM in the experiment with PC-3 prostate, 1.03 µM in the experiment with SF-268 CNS and under 19.7 nM with SR leukemia. Besides, the TGI in the experiment on A498 renal was 16.2 µM; in the experiment with A549 NSCLC, 6.79 µM; in the experiment with HOP-62 NSCLC it was 3.49 µM; with MOLT-4 leukemia, 9.65 µM; in the experiment with NCI-H460 lung, 5.56 µM; in the experiment with OVCAR-5 ovarian, 6.25 µM. The TGI with PC-3 prostate was found to be 3.03 µM; in the experiment on SF-268 CNS, 4.66 µM.

As for `Cn1c(-c2c(N)n(Cc3ccc(F)cc3)c3nc(C#N)c(C#N)nc23)nc2ccccc21`, the GI50 with A549 NSCLC was 5.48 µM; with HL-60(TB) leukemia, 3.76 µM; with HOP-62 NSCLC, 2320 nM; in the experiment on NCI-H460 lung it was 2210 nM; with OVCAR-5 ovarian, 8.55 µM; in the experiment with PC-3 prostate, 2.61 µM. Besides, the GI50 is 5.47 µM in the experiment on SF-268 CNS and 1010 nM with SR leukemia. Besides, the TGI with A549 NSCLC was over 50 µM; in the experiment on HL-60(TB) leukemia, over 50 µM; in the experiment on HOP-62 NSCLC, 22.5 µM; with NCI-H460 lung it was 25.2 µM; with OVCAR-5 ovarian it was over 50 µM; with PC-3 prostate, over 50 µM. In addition, the TGI in the experiment on SF-268 CNS and in the experiment on SR leukemia was over 50 µM in each case.

On to `COc1cc(CCC(=O)NC[C@@H](O)c2ccccc2)ccc1O`, for which the GI50 was over 100 µM in the experiment with A549 NSCLC; over 100 µM with HL-60(TB) leukemia; over 100000 nM with HOP-62 NSCLC; over 100000 nM in the experiment with MOLT-4 leukemia; over 100000 nM in the experiment on NCI-H460 lung; over 100 µM in the experiment on OVCAR-5 ovarian. Also, the GI50 in the experiment on PC-3 prostate was over 100 µM; in the experiment with SF-268 CNS, over 100 µM; in the experiment with SR leukemia it was 61600 nM. Further, the TGI in the experiment on A549 NSCLC, in the experiment on HL-60(TB) leukemia, in the experiment on HOP-62 NSCLC, in the experiment with MOLT-4 leukemia, with NCI-H460 lung and in the experiment on OVCAR-5 ovarian was over 100 µM throughout. In addition, the TGI in the experiment with PC-3 prostate, in the experiment on SF-268 CNS and in the experiment on SR leukemia was over 100 µM each time.

As for `Cc1c2c(nn1-c1ccc(S(=O)(=O)NC(=S)NC(=O)c3ccccc3)cc1)-c1ccccc1CC2`, the GI50 in the experiment with A549 NSCLC is 54.1 µM; with HL-60(TB) leukemia, 3.85 µM; in the experiment with HOP-62 NSCLC it was over 100000 nM; with MOLT-4 leukemia, over 100000 nM; in the experiment on NCI-H460 lung it was 45100 nM; in the experiment with OVCAR-5 ovarian, over 100 µM. Moreover, the GI50 in the experiment on PC-3 prostate is 42 µM; in the experiment on SF-268 CNS, 29.3 µM; in the experiment with SR leukemia, 759 nM. For the same compound, the TGI in the experiment with A549 NSCLC, with HL-60(TB) leukemia, with HOP-62 NSCLC, in the experiment with MOLT-4 leukemia, in the experiment on NCI-H460 lung and with OVCAR-5 ovarian was over 100 µM each time. Moreover, the TGI in the experiment on PC-3 prostate, in the experiment with SF-268 CNS and in the experiment on SR leukemia was over 100 µM in each case.

With `O=C1c2cc(F)ccc2-c2c1c1ccc([N+](=O)[O-])cc1c(=O)n2CCCBr`, the GI50 in the experiment on A549 NSCLC was 25.7 µM; in the experiment with HOP-62 NSCLC, 2280 nM; in the experiment on MOLT-4 leukemia it was 2800 nM; with NCI-H460 lung, 4560 nM; in the experiment with OVCAR-5 ovarian it was 65.5 µM; in the experiment on PC-3 prostate, 28.7 µM. In addition, the GI50 in the experiment with SF-268 CNS was 8.56 µM; in the experiment with SR leukemia, 88.5 nM. The TGI was over 100 µM in the experiment with A549 NSCLC; 8.64 µM in the experiment on HOP-62 NSCLC; 14.2 µM with MOLT-4 leukemia; over 100 µM in the experiment with NCI-H460 lung; over 100 µM in the experiment on OVCAR-5 ovarian; over 100 µM with PC-3 prostate. The values for the TGI with SF-268 CNS and in the experiment on SR leukemia were over 100 µM and 1.74 µM, respectively.

Turning to `Cc1ccsc1-c1ccc2c(c1)COC2(CCCN(C)C)c1ccc(F)cc1` (stereo not given), the GI50 was 4.48 µM with A549 NSCLC; 1.93 µM with HL-60(TB) leukemia; 3160 nM in the experiment on HOP-62 NSCLC; 2700 nM in the experiment on MOLT-4 leukemia; 1770 nM in the experiment on NCI-H460 lung; 3.81 µM in the experiment on OVCAR-5 ovarian. In addition, the GI50 was 3.28 µM with PC-3 prostate, 4.28 µM in the experiment on SF-268 CNS and 2290 nM in the experiment on SR leukemia. Besides, the TGI was 18.1 µM in the experiment on A549 NSCLC; 4.59 µM with HL-60(TB) leukemia; 12.8 µM in the experiment with HOP-62 NSCLC; 8.43 µM in the experiment on MOLT-4 leukemia; 3.49 µM in the experiment with NCI-H460 lung; 15 µM with OVCAR-5 ovarian. Also, the TGI in the experiment on PC-3 prostate was 13.2 µM; in the experiment with SF-268 CNS it was 17.1 µM; in the experiment with SR leukemia it was 7.3 µM.

`Nc1ncn([C@H]2C[C@H](OP(=O)(O)OC[C@H]3O[C@@H](n4cnc5c(=O)[nH]c(N)nc54)C[C@@H]3O)[C@@H](CO)O2)c(=O)n1`: the GI50 in the experiment on A498 renal was over 100 µM; with A549 NSCLC, 82.9 µM; with HL-60(TB) leukemia, over 100 µM; in the experiment with HOP-62 NSCLC, 9270 nM; with MOLT-4 leukemia, over 100000 nM; in the experiment with NCI-H460 lung it was 7440 nM. In addition, the values for the GI50 in the experiment with OVCAR-5 ovarian, in the experiment on SF-268 CNS and in the experiment with SR leukemia were over 100 µM, over 100 µM and over 100000 nM, respectively. The TGI in the experiment with A498 renal, in the experiment with A549 NSCLC, in the experiment with HL-60(TB) leukemia, with HOP-62 NSCLC, in the experiment on MOLT-4 leukemia and with NCI-H460 lung was over 100 µM throughout. In addition, the TGI in the experiment with OVCAR-5 ovarian, in the experiment with SF-268 CNS and with SR leukemia was over 100 µM throughout.

Take `CC(C)=NNC(=S)NC12CC3CC(CC(C3)C1)C2`: the TGI with A498 renal, in the experiment on A549 NSCLC, with HL-60(TB) leukemia, in the experiment on HOP-62 NSCLC, in the experiment on MOLT-4 leukemia and in the experiment on NCI-H460 lung was over 100 µM in each case. Also, the TGI in the experiment on OVCAR-5 ovarian, in the experiment on SF-268 CNS and in the experiment with SR leukemia was over 100 µM in each case.
